According to BindingDB's records for doi:10.1016/j.bmcl.2004.10.084 (University of Illinois At Chicago, 2005):

Molecular target: Beta-secretase 1 (Homo sapiens, UniProt P56817)
Test: Enzyme Inhibition Measurements
Conditions: pH 4.5; 37 °C
Description: Enzyme activities were assayed by monitoring the hydrolysis of substrate in the presence or absence of inhibitor compounds. The hydrolysis was recorded as the increase in fluorescence intensity over a 10 min time period. […] The Ki was calculated by using Ki = IC50/ (1 + [S]/Km), and a Km value determined according to Michaelis-Menten.

Beta-secretase 1, sequence (P56817 whole entry): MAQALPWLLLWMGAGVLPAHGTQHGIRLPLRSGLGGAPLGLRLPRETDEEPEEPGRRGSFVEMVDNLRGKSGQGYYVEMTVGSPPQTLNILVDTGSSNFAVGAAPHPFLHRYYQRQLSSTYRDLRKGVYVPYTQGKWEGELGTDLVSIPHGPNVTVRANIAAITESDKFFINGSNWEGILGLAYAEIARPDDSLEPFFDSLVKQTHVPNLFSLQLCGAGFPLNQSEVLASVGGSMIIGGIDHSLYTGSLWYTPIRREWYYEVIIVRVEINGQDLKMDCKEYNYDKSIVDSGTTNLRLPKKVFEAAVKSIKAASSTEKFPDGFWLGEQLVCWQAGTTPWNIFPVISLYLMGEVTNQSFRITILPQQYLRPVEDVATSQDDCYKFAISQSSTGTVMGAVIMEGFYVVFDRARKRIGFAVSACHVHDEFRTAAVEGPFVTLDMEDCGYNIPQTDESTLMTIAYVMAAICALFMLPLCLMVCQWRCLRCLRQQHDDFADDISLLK

Ki: 0.0266 µM
SMILES: C=CCNC(=O)C[C@H](NC(=O)[C@@H](NC(=O)OCC=C)C(C)C)C(=O)N[C@@H](CC(C)C)[C@@H](O)C[C@@H](C)C(=O)N[C@H](C(=O)NCc1ccccc1)C(C)C [prop-2-en-1-yl N-[(1S)-1-{[(1S)-1-{[(1R,3S,4S)-1-{[(1S)-1-(benzylcarbamoyl)-2-methylpropyl]carbamoyl}-3-hydroxy-1,6-dimethylheptan-4-yl]carbamoyl}-2-(prop-2-en-1-ylcarbamoyl)ethyl]carbamoyl}-2-methylpropyl]carbamate]
